From ChEMBL document CHEMBL6078706, “Deciphering the Comprehensive Structure-Activity Relationship of Sunshinamide for Breast Cancer Therapy through Dual Modulation of Apoptotic and Ferroptotic Pathways via TrxR1 and Gpx4 Inhibition” (J Med Chem, 2024) come the findings set out here.

The source made the active and inactive calls. The calls are words filed in the database; no cut-off is given here.

For one series, the system named is HEK293. The experiment in a line: Antiproliferative activity against human HEK293 cells assessed as cell viability upto 50 nM incubated for 48 hrs by MTT assay. The class given is toxicity, cell-based. The conditions noted are these: hek293, 48 h, 0.05 µM. A general note: Formazan colour is commonly taken as a measure of viable cells.
The subject of series [1] is MDA-MB-468. Put plainly: Induction of ferroptosis in human MDA-MB-468 cells assessed as increase in cell viability at 25 nM incubated for 48 hrs. The class given is functional, cell-based.
The subject of series [2] is MDA-MB-468. Put plainly: Antiproliferative activity against human MDA-MB-468 cells assessed as cell viability at 10 nM incubated for 48 hrs by MTT assay. The class given is functional, cell-based.
Another series has as its system A549. The experiment in a line: Antiproliferative activity against human A549 cells assessed as cell viability at 10 nM incubated for 48 hrs by MTT assay. It is filed as functional, cell-based.

For the compound `CCCCCCC[C@@H]1CC(=O)N[C@H](CC(C)C)C(=O)N[C@H]2CSSC[C@H](NC2=O)C(=O)O1`, in the series on HEK293, the Activity entry was “Non-toxic”. On the same count and under the same terms, to `CC(C)(C)OC(=O)N[C@@H]1CSSC[C@@H](C(=O)OC(C)(C)C)NC1=O` belongs “Non-toxic”. With `CCOC(=O)c1ccc(NC2CCCCC2)c(N)c1`, the outcome in the series with MDA-MB-468 [1] was Active. Regarding `O=C1C[C@@H](c2ccccc2)OC(=O)[C@@H]2CSSC[C@H](NC(=O)[C@@H](Cc3ccccc3)N1)C(=O)N2`, the outcome with MDA-MB-468 [2] and with A549 was Active. The Activity entry in the series with HEK293 was “Non-toxic”. `CC[C@@H]1CC(=O)N[C@H](Cc2ccccc2)C(=O)N[C@H]2CSSC[C@H](NC2=O)C(=O)O1`: the result with MDA-MB-468 [2] and in the series on A549 was Active. In the series on HEK293, the Activity entry is “Non-toxic”. `CCCCCCC[C@@H]1CC(=O)N[C@H](CO)C(=O)N[C@H]2CSSC[C@H](NC2=O)C(=O)O1`: in the series on HEK293, the Activity entry was “Non-toxic”. Still for that read-out and setting: then `CCCCCCC[C@H]1CC(=O)N[C@H](Cc2ccccc2)C(=O)N[C@H]2CSSC[C@H](NC2=O)C(=O)O1`, with “Non-toxic”; and `CCCCCCC[C@@H]1CC(=O)NCC(=O)N[C@H]2CSSC[C@H](NC2=O)C(=O)O1`, with “Non-toxic”.
